Test results as given in patent US8173674B2, “Sulfonyl-phenyl-2H-[1,2,4]oxadiazol-5-one derivatives, processes for their preparation and their use as pharmaceuticals” (Sanofi-Aventis, priority 2006, dated 2012).
Where two headings read alike, the source gives them in different places.

Columns and labels:
human PPARalpha = target: T1, human PPARalpha (Homo sapiens, UniProt Q07869); test: cellular PPARalpha assay (luciferase reporter, stably transfected HEK cell line); type: cell-based
T1 construct: amino acids S167-Y468; expressed in transfected cells
T1 sequence (Q07869 167-468): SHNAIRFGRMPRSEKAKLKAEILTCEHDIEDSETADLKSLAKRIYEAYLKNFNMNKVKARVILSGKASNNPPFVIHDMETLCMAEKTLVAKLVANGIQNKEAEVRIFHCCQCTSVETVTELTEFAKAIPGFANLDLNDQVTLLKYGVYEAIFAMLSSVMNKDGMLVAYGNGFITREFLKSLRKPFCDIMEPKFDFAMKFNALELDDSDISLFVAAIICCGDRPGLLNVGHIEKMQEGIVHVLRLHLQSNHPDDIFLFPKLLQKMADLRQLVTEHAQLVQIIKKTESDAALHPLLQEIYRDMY
Description: (§1) The potency of substances which bind to human PPARalpha and activate it in an agonistic manner is analyzed using a stably transfected HEK cell line (HEK=human embryo kidney) which is referred to here as PPARalpha reporter cell line. It contains two genetic elements, a luciferase reporter element (pdeltaM-GAL4-Luc-Zeo) and a PPARalpha fusion protein (GR-GAL4-humanPPARalpha-LBD) which mediates expression of the luciferase reporter element depending on a PPARalpha ligand. The stably and constitutively expressed fusion protein GR-GAL4-humanPPARalpha-LBD binds in the cell nucleus of the PPARalpha reporter cell line via the GAL4 protein portion to the GAL4 DNA binding motifs 5′-upstream of the luciferase reporter element which is stably integrated in the genome of the cell line. There is only weak expression of the luciferase reporter gene in the absence of a PPARalpha ligand if fatty acid-depleted fetal calf serum (cs-FCS) is used in the assay. PPARalpha ligands bind and activate the PPARalpha fusion protein and thereby stimulate the expression of the luciferase reporter gene. The luciferase which is formed can be detected by means of chemiluminescence via an appropriate substrate.
The PPARalpha reporter cell line was prepared in two stages. Firstly, the luciferase reporter element was constructed and stably transfected into HEK cells. For this purpose, five binding sites of the yeast transcription factor GAL4 (Accession # AF264724) were cloned in 5′-upstream of a 68 bp-long minimal MMTV promoter (Accession # V01175). The minimal MMTV promoter section contains a CCAAT box and a TATA element in order to enable efficient transcription by RNA polymerase II. The cloning and sequencing of the GAL4-MMTV construct took place in analogy to the description of Sambrook J. et. al. (Molecular cloning, Cold Spring Harbor Laboratory Press, 1989). Then the complete Photinus pyralis gene (Accession # M15077) was cloned in 3′-downstream of the GAL4-MMTV element. After sequencing, the luciferase reporter element consisting of five GAL4 binding sites, MMTV promoter and luciferase gene was recloned into a plasmid which confers zeocin resistance in order to obtain the plasmid pdeltaM-GAL4-Luc-Zeo. This vector was transfected into HEK cells in accordance with the statements in Ausubel, F. M. et al. (Current protocols in molecular biology, Vol. 1-3, John Wiley & Sons, Inc., 1995).
In a second step, the PPARalpha fusion protein (GR-GAL4-humanPPARalpha-LBD was introduced into the stable cell clone described. For this purpose, initially the cDNA coding for the N-terminal 76 amino acids of the glucocorticoid receptor (Accession # P04150) was linked to the cDNA section coding for amino acids 1-147 of the yeast transcription factor GAL4 (Accession # P04386). The cDNA of the ligand-binding domain of the human PPARalpha receptor (amino acids S167-Y468; Accession # S74349) was cloned in at the 3′-end of this GR-GAL4 construct. The fusion construct prepared in this way (GR-GAL4-humanPPARalpha-LBD) was recloned into the plasmid pcDNA3 (Invitrogen) in order to enable constitutive expression therein by the cytomegalovirus promoter. This plasmid was linearized with a restriction endonuclease and stably transfected into the previously described cell clone containing the luciferase reporter element. The finished PPARalpha reporter cell line which contains a luciferase reporter element and constitutively expresses the PPARalpha fusion protein (GR-GAL4-human PPARalpha-LBD) was isolated by selection with zeocin (0.5 mg/ml) and G418 (0.5 mg/ml).
The activity of PPARalpha agonists is determined in a 3-day assay which is described below: […]

human PPARdelta = target: T2, human PPARdelta (Homo sapiens, UniProt Q03181); test: cellular PPARdelta assay (luciferase reporter, stably transfected HEK cell line); type: cell-based; details: GR-GAL4-humanPPARdelta-LBD
T2 construct: amino acids S139-Y441; expressed in transfected cells
T2 sequence (Q03181 139-441): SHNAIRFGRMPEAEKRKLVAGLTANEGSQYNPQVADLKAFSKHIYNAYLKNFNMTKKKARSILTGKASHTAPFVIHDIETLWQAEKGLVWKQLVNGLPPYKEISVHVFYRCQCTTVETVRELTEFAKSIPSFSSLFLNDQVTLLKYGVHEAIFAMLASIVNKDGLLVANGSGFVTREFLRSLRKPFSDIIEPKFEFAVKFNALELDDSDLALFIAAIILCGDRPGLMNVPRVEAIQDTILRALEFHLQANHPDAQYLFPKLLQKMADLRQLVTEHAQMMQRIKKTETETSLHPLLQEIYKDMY
Description: as §1, with “PPARdelta” for “PPARalpha”, “In analogy to the assay described for PPARalpha, the PPARdelta reporter cell line also” for “It”, “(GR-GAL4-humanPPARdelta-LBD)” for “(GR-GAL4-humanPPARalpha-LBD)”, “GR-GAL4-humanPPARdelta-LBD” for “GR-GAL4-humanPPARalpha-LBD”, “little” for “weak”, “stimulate” for “stimulate the”
The production of the stable PPARdelta reporter cell line is based on a stable HEK-cell clone which was stably transfected with a luciferase reporter element. This step was already described above in the section “construction of the PPARalpha reporter cell line”. […]
The activity of PPARdelta agonists is determined in a 3-day assay in exact analogy to the procedure already described for the PPARalpha reporter cell line except that the PPARdelta reporter cell line and a specific PPARdelta agonist was used as a standard to control test efficacy.

PPARdelta [1] = target: T3, PPARdelta (Macaca mulatta, UniProt I0FFS1); details: obese, insulin resistant rhesus monkeys; cited from earlier work
T3 sequence (I0FFS1 1-441): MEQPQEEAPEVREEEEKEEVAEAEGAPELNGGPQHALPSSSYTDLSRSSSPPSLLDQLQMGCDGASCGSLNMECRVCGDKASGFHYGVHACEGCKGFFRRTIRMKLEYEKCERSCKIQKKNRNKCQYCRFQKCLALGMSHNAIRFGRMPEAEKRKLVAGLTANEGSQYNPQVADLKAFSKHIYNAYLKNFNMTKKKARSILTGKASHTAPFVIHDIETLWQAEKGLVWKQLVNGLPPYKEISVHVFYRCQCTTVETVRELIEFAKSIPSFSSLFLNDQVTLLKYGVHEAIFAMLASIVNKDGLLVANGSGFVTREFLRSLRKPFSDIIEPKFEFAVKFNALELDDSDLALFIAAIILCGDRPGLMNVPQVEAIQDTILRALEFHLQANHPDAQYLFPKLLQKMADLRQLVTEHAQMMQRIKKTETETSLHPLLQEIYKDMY

PPARdelta [2] = details: diabetic animal model; cited from earlier work
PPARdelta/PPARalpha [3] = details: rhesus and cynomolgus monkeys; cited from earlier work
PPARdelta/PPARalpha [4] = details: two weeks clinical trials, healthy volunteers; cited from earlier work
[5] = GR-GAL4-humanPPARalpha-LBD, read-out: PPARalpha EC50
[6] = read-out: PPARalpha EC50 values (range given)

Row | EC50 (human PPARalpha; [5]) | EC50 (human PPARalpha; [6]) | EC50 (human PPARdelta) | SMILES | also measured
1 | 1640 nM | 1000 to 5000 nM | 35 nM | O=c1nc(-c2ccc(S(=O)(=O)N3CCc4ccc(-c5ccc(C(F)(F)F)cc5)cc4C3)cc2Cl)[nH]o1 [Example 5, 3-{2-Chloro-4-[7-(4-trifluoromethyl-phenyl)-3,4-dihydro-1H-isoquinoline-2-sulfonyl]-phenyl}-2H-[1,2,4]oxadiazol-5-one] | 
2 |  |  |  | Cc1cc(SCc2sc(-c3ccc(C(F)(F)F)cc3)nc2C)ccc1OCC(=O)O [GW501516] | HDL-cholesterol (PPARdelta [1]): raises; insulin levels (PPARdelta [1]): decreases; plasma LDL-cholesterol (PPARdelta [1]): decreases; triglycerides (PPARdelta [1]): decreases
3 | 1110 nM | 1000 to 5000 nM | 3 nM | O=c1[nH]c(-c2ccc(S(=O)(=O)N3CCc4cc(-c5ccc(C(F)(F)F)cc5)ccc43)cc2Cl)no1 [Example 3, 3-{2-Chloro-4-[5-(4-trifluoromethyl-phenyl)-2,3-dihydro-indole-1-sulfonyl]-phenyl}-4H-[1,2,4]oxadiazol-5-one] | 
4 |  |  |  | CCCc1c(OCCCOc2ccc(OCC(=O)O)cc2)ccc(C(C)=O)c1O [Example L-165041] | plasma cholesterol (PPARdelta [2]): raises
5 |  | 1000 to 5000 nM |  | O=c1[nH]c(-c2ccc(S(=O)(=O)N3CCc4cc(-c5ccc(C(F)(F)F)cc5)ccc43)cc2)no1 [Example 1, 3-{4-[5-(4-Trifluoromethyl-phenyl)-2,3-dihydro-indole-1-sulfonyl]-phenyl}-4H-[1,2,4]oxadiazol-5-one] | 
6 |  | 1000 to 5000 nM |  | CC1(C)CN(S(=O)(=O)c2ccc(-c3nc(=O)o[nH]3)c(Cl)c2)c2ccc(-c3ccc(C(F)(F)F)cc3)cc21 [Example 4, 3-{2-Chloro-4-[3,3-dimethyl-5-(4-trifluoromethyl-phenyl)-2,3-dihydro-indole-1-sulfonyl]-phenyl}-2H-[1,2,4]oxadiazol-5-one] | 
7 |  |  |  | CCCc1c(OCCCSc2nnc(SCC(=O)O)s2)ccc(C(C)=O)c1O [YM-16638] | plasma lipids (PPARdelta/PPARalpha [3]): significantly lowers; plasma lipids (PPARdelta/PPARalpha [4]): acts in a similar manner
8 | 3520 nM | 1000 to 5000 nM | 15 nM | CC1(C)CN(S(=O)(=O)c2ccc(-c3nc(=O)o[nH]3)cc2)c2ccc(-c3ccc(C(F)(F)F)cc3)cc21 [Example 2, 3-{4-[3,3-Dimethyl-5-(4-trifluoromethyl-phenyl)-2,3-dihydro-indole-1-sulfonyl]-phenyl}-2H-[1,2,4]oxadiazol-5-one] | 
